# In BindingDB's records for doi:10.1021/jm991038t (Max-Planck Research Unit, 1999):
# Test: Inhibition constant(Ki) for inhibition of PPIase activity of Legionella pneumophilia FK506 binding protein 25 (Conc=40 nM) of FKBPs family
smiles,measurement,value
C[C@@H]1C[C@@H]([C@H](O)CC2CC(=O)NC(=O)C2)C(=O)[C@@H](C)C1 [Cycloheximid],Ki,124 µM
